Experiments:
[1] = H2O2 accumulation and decay in tissue culture exposed to HX/XO (H2O2 selective electrode); format: cell-based, Chinese hamster; conditions: presence of CHD
Protocol: Chinese hamster V79 cells were plated in full medium and incubated at 37° C. with 5 mM HX+0.04 U/ml XO, sampled at various time points, and assayed for H2O2 using a hydrogen peroxide selective electrode.
Hydrogen peroxide was assayed using a YSI Model 27 Industrial Analyzer (Yellow Springs Instruments) equipped with a selective electrode for H2O2. For analysis of cellular preparations, the cells, except during the brief time required for removal of aliquots for analysis, were kept in T25 culture flasks maintained at 37° C. in complete medium (pH 7.2). Aliquots of 25 μl were sampled from the reaction or cell preparation system at varying time points and injected into the analyzer. [H2O2] was determined after calibrating the instrument with known concentrations of H2O2. The concentrations of standard H2O2 solutions were calibrated using iodometric assay (Hochanadel, J. Phys. Chem., 56, 587-594, 1952).

DNA-Fe(II) = assay: Reaction of nitroxide with DNA-Fe(II), EPR spin-loss and OD353nm; format: biochemical, Salmon; conditions: hypoxic mixing, 0.1 mg/ml Salmon DNA, 50 mM MOPS pH 7.0, 22° C.
Protocol: All solutions always contained 0.1 mg/ml Salmon DNA. The appearance of DNA-Fe(III) was spectrophotometrically monitored at 353 nm, whereas the spin-loss of CHD was monitored by following its EPR signal. To study the time-dependence of ΔOD353nm (∘), 1 mM CHD was mixed with 0.1 mM Fe(II). To follow the spin-loss of CHD (□), 1 mM Fe(II) was mixed with 0.1 mM CHD.
It was also questioned whether the aerobic and hypoxic protection by CHD to H2O2 exposure was a result of CHD directly accepting electrons from ferrous ions, thereby preventing generation of .OH. Because cellular iron is chelated, the possible reaction of nitroxide with chelated iron(II) was examined by repeating the experiment in the presence of DNA. To study the possibility of nitroxide-induced oxidation of transition metals, CHD was hypoxically mixed with iron(II) in the presence of 0.1 mg/ml Salmon DNA. Consequently, DNA-Fe(III) was formed and the nitroxide EPR signal disappeared. The reaction kinetics were investigated by maintaining either CHD or Fe(II) in excess while the absorbance due to DNA-Fe(III) and the nitroxide spin-loss were monitored respectively (FIG. 6). Both the decay of the EPR signal and the appearance of the OD353nm obeyed pseudo 1st order kinetics from which the 2nd order reaction rate constant was calculated as 44 M^−1s^−1 or 33 M^−1s^−1 using the data from EPR or optical absorption, respectively.

V79 cells = assay: Nitroxide intracellular localization by EPR with trioxalato-chromiate; format: cell-based, Chinese hamster
Protocol: The EPR signal intensity of the total concentration of CHD (intra- and extra-cellular) in 6.4×10^7 V79 cells/ml traces (A and C) and in the presence of 110 mM trioxalato-chromiate (CrOx) (traces B and D).
For EPR experiments, samples (0.05-0.1 ml) either of solutions of chemicals or cell suspensions were drawn by a syringe into a gas-permeable teflon capillary of 0.8 mm inner diameter, 0.05 mm wall thickness (Zeus Industrial Products, Inc. Raritan, N.J.). Each capillary was folded twice, inserted into a narrow quartz tube which was open at both ends (2.5 mm ID), and then placed horizontally into the EPR cavity. During the experiments, gases of desired compositions were blown around the sample without having to disturb the alignment of the tube within the EPR cavity. EPR spectra were recorded in a Varian E4 (or E9) X-band spectrometer, with field set at 3357 G, modulation frequency of 100 KHz, modulation amplitude of 1 G and non-saturating microwave power. The EPR spectrometer was interfaced to an IBM-PC through an analog-to-digital converter and a data translation hardware (DT2801) and the spectra were digitized using commercial acquisition software, enabling subtraction of background signals. To study the kinetics of the spin-loss, the spectra were deliberately overmodulated, and the magnetic field was kept constant while the intensity of the EPR signal was followed. […]

## CC1(C)CN([O])C2(CCCCC2)O1 [CHD, 2-spirocyclohexane-5,5-dimethyl-3-oxazolidinoxyl]
[1]
  pattern of H2O2 generation by HX/XO: did not significantly alter
DNA-Fe(II); EPR spin-loss
  2nd order reaction rate constant with DNA-Fe(II), from EPR data: 44 M⁻¹ s⁻¹
DNA-Fe(II); OD353nm
  2nd order reaction rate constant with DNA-Fe(II), from optical absorption: 33 M⁻¹ s⁻¹
V79 cells
  intracellular location / freedom of motion: located primarily in a membranous compartment

From patent US6605619B1, “Nitroxides as protectors against oxidatives stress” (The United States of America as represented by the …, priority 1992, dated 2003)
